Target: T1, Parkin ligase (Homo sapiens, UniProt O60260)
T1 construct: Enzyme: Parkin-His tagged 203 μM (10.5 mg/ml)
T1 sequence (O60260 1-465): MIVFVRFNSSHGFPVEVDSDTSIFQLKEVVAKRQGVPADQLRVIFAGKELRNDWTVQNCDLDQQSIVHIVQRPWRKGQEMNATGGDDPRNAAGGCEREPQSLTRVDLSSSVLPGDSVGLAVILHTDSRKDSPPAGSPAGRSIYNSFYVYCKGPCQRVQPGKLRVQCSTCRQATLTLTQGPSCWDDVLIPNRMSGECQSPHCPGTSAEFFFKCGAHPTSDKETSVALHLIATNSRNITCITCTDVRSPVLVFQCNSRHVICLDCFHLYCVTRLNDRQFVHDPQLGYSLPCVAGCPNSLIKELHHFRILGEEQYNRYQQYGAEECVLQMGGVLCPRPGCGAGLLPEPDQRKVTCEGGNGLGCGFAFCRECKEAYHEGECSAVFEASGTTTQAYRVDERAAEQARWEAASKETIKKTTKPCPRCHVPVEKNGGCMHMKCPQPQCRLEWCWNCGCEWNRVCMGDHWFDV
Test: Activity-based probe assay using an ubiquitin vinyl sulfone probe (TR-FRET)
Type: biochemical
Details: activation of heat activated Parkin, HA-Ub-VS probe; read-out: Probe Assay EC50 (μM) [Example 2]
Procedure: An Ubiquitin vinyl sulfone probe can be used that irreversibly binds to the active site cysteine of Parkin ligase. Covalent attachment of the probe to the Parkin can be monitored by TR-FRET. Candidate activator compounds can be identified by increasing the activity of Parkin ligase due to an increase in TR-FRET signal. Screening for activating compounds can be distinguished from the controls as follows:
100% activation signal=Heat activated Parkin+100 nM control activator in DMSO. 0% activation signal=Heat activated Parkin+DMSO only. Parkin activators can be identified by an increase of the 0% activation signal TR-FRET signal.
• Assay Plate: White 384 well plate (Corning 3572) • Enzyme: Parkin-His tagged 203 μM (10.5 mg/ml) • Probe: Ubiquitin vinyl-sulfone (HA-Ub-VS Boston Biochem U-212) • DMSO: DMSO (Sigma cat # D4540-100ML) • Reaction Buffer: 50 mM HEPES (pH 8.5), 150 mM NaCl, 0.01% Tween 20, 0.1% BSA • Detection Buffer: 50 mM HEPES (pH 8.5), 150 mM NaCl, 0.01% Tween 20, 0.1% BSA, 800 mM KF • Detection Reagent A: 2.6 nM Anti-6HIS-Eu cryptate and 40 nM Anti-HA-XL665 in detection buffer • Eu cryptate: Anti-6HIS-Eu cryptate (CisBio 61HISKLA) • XL665: Anti-HA-XL665 (CisBio 610HAXLA) Enzyme Reaction (15 min Pre Incubation Parkin with Activator Only) • Parkin: 40 nM • HA-Ub-VS Probe: 70 nM • Activator/DMSO: 2× Activator/2% DMSO • Reaction time: 60 minutes • Temperature: 22° C. • Total volume: 10 μl reaction
• Take 10 μl of Enzyme Reaction above and add 10 μl detection Reagent A under the following conditions: • Reaction time: 60 minutes • Temperature: 22° C. • Total volume: 20 μl
Assay procedure (Using HP D-300 compound dispenser and Bravo for the operation):
1) Heat activate Parkin in reaction buffer (500 μl/1.5 ml tube: Eppendorf Thermomixer 5 minutes, 400 rpm at 58° C. and put on ice until needed). 2) Load assay plate wells with 4.8 μl 84.5 nM Parkin in reaction buffer by use of Bravo. 3) Deliver 0.2 μl 200× activator candidates in DMSO by use of HP D-300 compound dispenser. Highest 200× concentration=20 μm and then twofold dilutions. 4) Spin 1000 rpm, 2 minutes, at room temp. 5) Incubate plate for 15 minutes at room temp. 6) Add 5 μl 140 nM HA-Ub-VS Probe in reaction buffer by use of Bravo. 7) Spin 1000 rpm, 2 minutes, at room temp. 8) Incubate plate for 60 minutes at room temp. 9) Add 10 μl 2.6 nM Anti-6HIS-Eu cryptate and 40 nM Anti-HA-XL665 in detection buffer. 10) Spin 1000 rpm, 2 minutes, at room temp. 11) Incubate plate for 60 minutes at room temp. 12) Read plates on Perkin Elmer Envision instrument with the following parameters:
LANCE dual laser protocol loaded into the Envision® software
Top Mirror: LANCE/DELFIA Duel/Bias (Bar code 446) Emission Filter: APC 665 EM (Bar code 205) 2nd Emission Filter: Europium 615 EM (Bar code 203) Read […] (channel 1) and 615 nm (channel 2) wavelengths on Envision®
Data Analysis: The Data can be read in CSV files. There are two tables in those CSV files, which are the values of 655 nm (channel 1) and 615 nm (channel 2) wavelengths respectively. The data is converted to an HTRF Ratio=(Channel 1/Channel 2)*10,000
The average of all the 0 uM controls (DMSO only)=BKGD (Background—0% activation). Subtract BKGD from each HTRF Ratio value=HTRF-BKGD. The average of all the […] 100 nM control activator in DMSO controls=Max (100% activation). The following equation is then used to calculate % Activation for each well/candidate as follows: % Activation=(HTRF−BKGD/Max)*100.
Graphpad Prisim was used with Transform X values: X=Log(X) and nonlinear regression (dose-response-stimulation): Log(agonist) vs Response—variable slope (four parameters) with constrains set to Bottom=0 and Top=100.

Compound | EC50 [µM]
Cc1cc(C)c2c(n1)nn1c(O)c(Cc3ccccc3)c(C)nc21 [NN] | > 100
Cc1cc(S)n2nc(C)c(-c3ccc(Cl)cc3)c2n1 [N] | > 100
Cc1nc2c(C#N)c(C)nn2c(S)c1Cc1ccccc1 [OO] | > 100
Cc1cc(S)n2nc(C)c(-c3ccccc3)c2n1 [O] | > 100
Cc1cc(O)n2ncc(-c3ccc(F)cc3)c2n1 [PP] | > 100
Cc1nc2c(-c3ccccc3)c(C)nn2cc1Cc1ccccc1 [QQ] | > 100
Cc1cc2nc(C)c(Cc3ccccc3)c(O)n2n1 [Q] | > 100
Cc1cc(C)c2c(n1)nn1c(S)c(Cc3ccccc3)c(C)nc21 [RR] | 27.3
COc1ccc(-c2cnn3c(S)cc(C)nc23)cc1 [SS] | 8.9
Cc1cc2nc(C)c(Cc3ccccc3)c(S)n2n1 [S] | 27.9
Cc1ccc(-c2cnn3c(S)cc(C)nc23)cc1 [TT] | 6.8
Cc1nc2c(-c3ccccc3)c(C)nn2c(O)c1Cc1ccccc1 [T] | 49.1
Cc1cc(S)n2ncc(-c3cccc(N(C)C)c3)c2n1 [UU] | 10.7
Cc1cc(S)n2ncc(-c3cnn(C)c3)c2n1 [VV] | > 100
Cc1nn2c(S)c3c(nc2c1-c1ccccc1)CCOC3 [WW] | 71
Cc1nn2c(S)c3c(nc2c1-c1ccccc1)COC3 [XX] | 55.6
CNc1c2c(nc3c(-c4ccccc4)c(C)nn13)CCN(C)C2 [YY] | > 100
Cc1nn2c(S)c(C)c(Cc3ccccc3)nc2c1-c1ccccc1 [ZZ] | 0.5

— US20210163489A1, “PYRAZOLOPYRIMIDINE DERIVATIVES AND THE COMPOSITIONS AND METHODS OF TREATMENT REGARDING THE SAME” (NysnoBio Ireland DAC, priority 2016, published 2021)
